# Assay results: patent US6770740B1, “Crosslinked DNA condesate compositions and gene delivery methods” (The Regents of the University of Michigan, priority 1999, dated 2004)
# Where a SMILES comes first, the peptide text is derived from it.
# Assays:
# glutathione reductase = target: T1, glutathione reductase (Homo sapiens, UniProt P00390); conditions: challenged with glutathione reductase; Drummer et al., 1987; cited from earlier work
# T1 sequence (P00390 44-522): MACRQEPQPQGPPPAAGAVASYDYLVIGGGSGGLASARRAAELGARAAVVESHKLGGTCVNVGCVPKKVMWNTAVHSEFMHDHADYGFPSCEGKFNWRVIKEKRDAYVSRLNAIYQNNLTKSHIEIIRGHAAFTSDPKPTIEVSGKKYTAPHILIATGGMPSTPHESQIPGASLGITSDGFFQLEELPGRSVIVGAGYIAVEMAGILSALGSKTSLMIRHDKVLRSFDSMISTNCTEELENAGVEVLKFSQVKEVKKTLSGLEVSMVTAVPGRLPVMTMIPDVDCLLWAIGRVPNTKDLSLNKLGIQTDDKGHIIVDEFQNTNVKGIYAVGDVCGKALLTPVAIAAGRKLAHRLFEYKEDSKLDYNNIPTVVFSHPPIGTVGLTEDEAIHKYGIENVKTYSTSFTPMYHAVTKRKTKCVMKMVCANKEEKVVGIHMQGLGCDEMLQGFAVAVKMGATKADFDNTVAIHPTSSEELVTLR
# [1] = QELS particle size and zeta potential of cross-linking peptide DNA condensates, Example 5; assay type: physicochemical
# Experimental: The particle size of each peptide DNA condensate was determined by quasielastic light scattering (QELS) at a scatter angle of both 15° and 90° on a Brookhaven ZetaPlus™ particle sizer. Condensates were prepared at a DNA concentration of 50 μg/ml in 400 μl HBM at a stoichiometry of 0.4 nmol of peptide per μg of DNA corresponding to a charge ratio of approximately 2:1 for each. The mean diameter and population distribution were computed from the diffusion coefficient using a unimodal cummulant analysis supplied by the manufacturer.
# The particle size and zeta peptide IV DNA condensates were determined by titrating 7.5 to 37.5 nmol of peptide with 75 μg of DNA in 1.5 ml of HBM to produce 50 μg/ml DNA condensates with charge ratio of 0.5-2.5. The zeta potential was averaged from 10 determines.
# [2] = Shear stress stability of cross-linked DNA condensates (salt sonication), Example 5; assay type: physicochemical
# Experimental: Peptide DNA condensates (200 μl of 50 μg/ml) were formed and incubated at RT for 30 min and then combined with 0 to 200 μl of 5 M sodium chloride and normalized to 400 μl with HBM to achieve a final sodium chloride concentration of 0, 0.2, 0.4, 0.8, 1.0, 1.5, 2.0, and 2.5 M. Each sample was sonicated for 30 sec with a 100 W Microson™ XL-2000 ultrasonic probe homogenizer (Kontes, Vineland N.J.) with a vibrational amplitude of 6 to fragment uncondensed DNA (Adami et al., 1998). DNA condensates were digested with 30 μg of trypsin for 12 h at 37° C. then electrophoresed on an agarose gel and visualized by ethidium bromide staining.
# [3] = Kinetics of peptide oxidation (disulfide bond formation) in solution by ES-MS; assay type: physicochemical; conditions: pH 7.5, free in solution
# Experimental: The kinetics of disulfide bond formation in solution was monitored by […]. […] Single ion monitoring (SIM) scans were taken at 20 sec intervals over 2 h while monitoring the disappearance of the M+2H^+ parent ion (1258 amu) and formation of the M+2H^+ ion of the oxidized species (1256 amu).
# plasmid DNA [4] = assay: Kinetics of peptide cross-linking on DNA (SYBR-Gold fluorescence), Example 5; assay type: physicochemical; conditions: charge ratio 2:1
# Experimental: The kinetics of cross-linking within peptide DNA condensates was studied indirectly by monitoring the displacement of SYBR-Gold™ intercalator dye from DNA condensates as a function of time. Peptide DNA condensates were prepared (200 μl of 50 μg/ml) at a peptide stoichiometry of 0.4 nmol per μg of DNA. Immediately after mixing peptide and DNA, a 10 μl aliquot was combined with 990 μl of SYBR-Gold™ (1X) and the fluorescence intensity (Ex 495 nm, Em 537 nm) was continuously monitored for 30 min.
# The rate of cross-linking was also examined as a function of peptide concentration. The stoichiometry of peptide IV was increased from 0.4 to 1.2 nmol per μg of DNA and the rate of declining fluorescence intensity was determined as described above.
# [5] = QELS particle size and zeta potential of peptide DNA condensates, Example 6; assay type: physicochemical; conditions: charge ratio 4:1, 50 μg/ml DNA in HBM; for Particle Size (nm): 90°, average and SD of three, No particles formed; for Zeta Potential (mV): average and SD of ten
# Experimental: The particle size and zeta potential of peptide DNA condensates were determined by quasielastic light scattering (QELS) using a Brookhave ZetaPlus™. Particle size analysis was performed in triplicate at a DNA concentration of 50 μg/ml in HBM at a charge ratio of 4:1 and a scattering angle of 90°. Data analysis utilized a multimodal volume distribution option included with the instrument. Zeta potential was also determined using 50 μg/ml peptide DNA condensates prepared at a 4:1 charge ratio in HBM. The reported zeta potential was averaged from ten determinations.
# plasmid DNA [6] = assay: Thiazole orange displacement titration of peptide binding to DNA, Example 6; conditions: titration across charge ratios 0.25-8
# Experimental: Peptide DNA condensates were prepared by combining 50 μg of DNA in 500 μl of Hepes buffered mannitol (HBM) (5 w/v% mannitol, 5 mM Hepes, pH 7.5) with […] of peptide in 500 μl of HBM while vortexing to form peptide DNA condensates with a calculated primary amine to phosphate charge ratio between 0.25 and 8.0 (NH4^+:PO4). The condensates were allowed to cross-link for 30 min prior to performing physical measurements. The binding of each peptide to DNA was assayed by combining peptide DNA condensates (50 μl) with 950 μl of HBM containing 0.1 μM thiazole orange. The fluorescence of the intercalated dye was measured using an LS50B fluorometer (Perkin Elmer, UK) by exciting at 500 nm while monitoring emission at 530 nm with the slit width set at 15 and 20 nm, respectively. Fluorescence blanks were substracted from all values before data analysis.
# CHO cells = assay: Luciferase gene expression in CHO cells, Example 6; assay type: cell-based; conditions: 80 μM chloroquine
# HepG2 cells = assay: Luciferase gene expression in HepG2 cells, Example 6; assay type: cell-based; conditions: HepG2, absence of chloroquine
# Experimental: HepG2 cells (1.5×10^5) were plated on 6×35 mm wells and grown to 50% confluencey in MEM supplemented with 10% FBS, penicillin and streptomycin (100 U/ml), sodium pyruvate (100 mM), and L-glutamine (2 mM). Transfections were performed in MEM (2 ml per 35 mm well) with 2% FBS with and without 80 μM chloroquine. Peptide DNA condensates (10 μg of DNA of 0.2 ml HBM) were added dropwise to triplicate wells. After a 5 h incubation at 37° C., the medium was replaced with MEM supplemented with 10% FBS. After 24 h, cells were washed with ice-cold phosphate buffered saline (calcium and magnesium free) and then treated with 0.5 ml of ice-cold lysis buffer (25 mM) Tris chloride pH 7.8, 1 mM EDTA, 8 mM magnesium chloride, 1% Triton X-100, 1 mM DTT) for 10 min. The cell lysates were scraped, transferred to 1.5 ml microcentrifuge tube, and centrifuged for 7 min at 13,000 g at 4° C. to pellet debris.
# Lysis buffer (300 μl), sodium-ATP (4 μl of a 180 mM solution, pH 7, 4° C.) and cell lysate (100 μl, 4° C.) were combined in a test tube, briefly mixed and immediately placed in the luminometer. Luciferase relative light units (RLU) were recorded on a Lumat™ LB 9501 (Berthoid Systems, Germany) with 10 sec integration after automatic injection of 100 μl of 0.5 mM D-luciferin (prepared fresh in lysis buffer without DTT). The RLU were converted into fmol using a standard curve generated by adding a known amount of luciferase (0.01 to 100 fmols with specific activity of 2.5 nU/fmol) to 35 mm wells containing 50% confluent cells and lysis buffer. Protein concentrations were measured by Bradford assay using bovine serum albumin as a standard (Bradford, 1976). […]
# LipofectAce™ (Gibco BRL, 1:2.5 w/w dimethyl dioctadecylammonium bromide and dioleoyl phosphatidylethanolamine) was used to mediate gene transaction according to the manufacturer's instructions. […] The cells were incubated for a total of 24 h, harvested and analyzed for luciferase as described above.
# plasmid DNA [7] = assay: Kinetics of peptide cross-linking on DNA (SYBR-Gold), Example 6; assay type: physicochemical; conditions: charge ratio 4:1
# Experimental: The kinetics of disulfide bond formation of peptides bound to DNA was analyzed indirectly by monitoring the displacement of SYBR-Gold™ from DNA condensates. Peptide DNA condensates were formed by combining 20 μg of DNA in 500 μl of HBM containing 1× SYBR-Gold™ with 500 μl (26-52 nmol) of peptide in HBM containing 1 × SYBR-Gold to achieve a charge ratio of 4:1 (NH4^+:PO4). The fluorescence intensity (Ex 495 nm, Em 600 nm) was continuously monitored for 30 min to determine kinetics of cross-linking.
# [8] = Shear stress stability (salt sonication assay), Example 6; assay type: physicochemical; conditions: 30 sec sonication
# Experimental: The relative stability of peptide DNA condensates were examined using a salt sonication assay (Adami and Rice, 1999). Peptide DNA condensates (200 μl of 50 μg/ml) were formed as described above, incubated at RT for 30 min and then combined with 0-200 μl of 5 m […] and normalized to 400 μl with HBM to achieve a final sodium chloride concentration of 0, 0.2, 0.4, 0.8, 1.0, 1.5, 2.0 and 2.5 M. Each sample was sonicated for 30 sec with a 100 W Microson™ XL-2000 ultrasonic probe homogenizer (Kontes, Vineland N.J.) with a vibrational amplitude of 5 fragment uncondensed DNA. DNA condensates were digested with 30 μg to trypsin for 12 h at 37° C., electrophoresed on a 1% agarose gel electrophoresed in TEA buffer for 2 h, then visualized by ethidium bromide staining and destaining prior to photography on a transilluminator.
# COS 7 cells = assay: Luciferase gene expression in COS 7 cells, Example 6; assay type: cell-based; conditions: COS 7, 80 μM chloroquine
compound,measurement,setting,value
CC(C)(SSC(C)(C)C(N)C(=O)O)C(N)C(=O)O (stereo not shown) [Penicillamine disulfide],stability relative to cystine,glutathione reductase,approximately 26 fold
"NCCCC[C@H](NC(=O)[C@H](CCCCN)NC(=O)[C@H](CCCCN)NC(=O)[C@H](CCCCN)NC(=O)[C@H](CS)NC(=O)[C@H](CCCCN)NC(=O)[C@H](CCCCN)NC(=O)[C@H](CCCCN)NC(=O)[C@H](CS)NC(=O)[C@H](CCCCN)NC(=O)[C@H](CCCCN)NC(=O)[C@H](CCCCN)NC(=O)[C@H](CS)NC(=O)[C@H](CCCCN)NC(=O)[C@H](CCCCN)NC(=O)[C@H](CCCCN)NC(=O)[C@H](CCCCN)NC(=O)[C@H](Cc1c[nH]c2ccccc12)NC(=O)[C@@H](N)CS)C(=O)N[C@@H](CS)C(=O)O [V, Cys-Trp-Lys4-Cys-Lys3-Cys-Lys3-Cys-Lys4-Cys] (H-CWKKKKCKKKCKKKCKKKKC-OH; N-terminus and C-terminus assumed)","Particle Size Mean Diameter, Oxidized, 15°","[1]; HBM after 2 h incubation, 50 μg/ml DNA, 0.4 nmol peptide per μg DNA, scattering angle 15°",41 nm
same,"Particle Size Mean Diameter, Oxidized, 90°","[1]; HBM after 2 h incubation, 50 μg/ml DNA, 0.4 nmol peptide per μg DNA, scattering angle 90°",57 nm
same,"Particle Size Mean Diameter, Saline",[1]; HBM with added saline (0.15 M) after 15 min,93 nm
same,"Particle Size Mean Diameter, Reduced",[1]; following addition of TCEP (1 mM),171 nm
same,sodium chloride concentration of DNA condensate stability after reduction,[2]; DNA condensates reduced with TCEP,0.4 M
same,"sodium chloride concentration above which DNA was not protected, pre-oxidized peptide",[2]; peptide fully oxidized prior to making DNA condensates,0.4 M
same,half-life at 100 µM,"[3]; methanol/ammonium acetate solution, read-out: t½ of disappearance of the parent ion (intra-molecular disulfide formation)",~10 min
same,time to complete disappearance of the parent ion,[3],≤ 25 min
same,time of inter-peptide cross-linking on DNA,plasmid DNA [4],less than 30 min
Cys-(Lys)4-Cys (CKKKKC) [Peptide 5],Particle Size (nm),[5],38 ± 10 nm
same,charge ratio (NH4+:PO4) needed to condense DNA (thiazole orange fluorescence minimum),plasmid DNA [6],3
same,"gene expression relative to peptide 3, 6 and 7",CHO cells,three-orders of magnitude lower
Cys-(Lys)4-His-(Lys)3-Cys (CKKKKHKKKC) [Peptide 12],Particle Size (nm),[5],87 ± 20 nm
same,Zeta Potential (mV),[5],30 ± 2 mV
same,higher gene expression compared to peptide 7 DNA condensates,HepG2 cells,3 fold
same,time to completion of cross-linking on DNA (SYBR-Gold asymptote),plasmid DNA [7],less than 10 min
Cys-(Lys)8-Cys (CKKKKKKKKC) [Peptide 7],sodium chloride concentration at which DNA condensates dissociate,[8],0.8 to 1 M
same,Particle Size (nm),[5],53 ± 16 nm
same,Zeta Potential (mV),[5],26 ± 2 mV
same,"lower gene expression relative to peptide 3, 5 and 6 DNA condensates",COS 7 cells,5 fold
same,charge ratio (NH4+:PO4) needed to condense DNA (thiazole orange fluorescence minimum),plasmid DNA [6],2
